Test results taken from the supplement of paper PMC10307832.

How the values were obtained:
Experiment in all cases: relative viability (nuclei count vs DMSO), 5 days (fraction); higher = more cells survive
Erlotinib + Pemetrexed = compound: C#Cc1cccc(Nc2ncnc3cc(OCCOC)c(OCCOC)cc23)c1 [Erlotinib] + Nc1nc2[nH]cc(CCc3ccc(C(=O)N[C@@H](CCC(=O)O)C(=O)O)cc3)c2c(=O)[nH]1 [Pemetrexed] (partner 0.2 µM)
Summary of the method: (§1)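 Values are medians from duplicate plates. Each reflects relative viability, defined as the nuclei count of treated wells over that of vehicle wells. Lung cancer cell lines in 1536-well plates were pin-tool dosed one day after seeding with one drug alone or with a fixed anchor-drug dose plus five library-drug doses (not always all listed) in √10 steps, then fixed, stained and imaged at 4× after 5 days.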

Erlotinib + OSI-027 = compound: C#Cc1cccc(Nc2ncnc3cc(OCCOC)c(OCCOC)cc23)c1 [Erlotinib] + COc1cccc2cc(-c3nc([C@H]4CC[C@H](C(=O)O)CC4)n4ncnc(N)c34)[nH]c12 [OSI-027] (partner 0.5 µM)
Summary of the method: as §1

AT9283 + Alpelisib = compound: O=C(Nc1c[nH]nc1-c1nc2ccc(CN3CCOCC3)cc2[nH]1)NC1CC1 [AT9283] + Cc1nc(NC(=O)N2CCC[C@H]2C(N)=O)sc1-c1ccnc(C(C)(C)C(F)(F)F)c1 [Alpelisib] (partner 2 µM)
Summary of the method: as §1

AT9283 + Foretinib = compound: O=C(Nc1c[nH]nc1-c1nc2ccc(CN3CCOCC3)cc2[nH]1)NC1CC1 [AT9283] + COc1cc2c(Oc3ccc(NC(=O)C4(C(=O)Nc5ccc(F)cc5)CC4)cc3F)ccnc2cc1OCCCN1CCOCC1 [Foretinib] (partner 0.25 µM)
Summary of the method: as §1

AT9283 + Dasatinib = compound: O=C(Nc1c[nH]nc1-c1nc2ccc(CN3CCOCC3)cc2[nH]1)NC1CC1 [AT9283] + Cc1nc(Nc2ncc(C(=O)Nc3c(C)cccc3Cl)s2)cc(N2CCN(CCO)CC2)n1 [Dasatinib] (partner 0.075 µM)
Summary of the method: as §1

Cell Line | relative viability (Erlotinib + Pemetrexed; first compound 0.02 µM) | relative viability (Erlotinib + Pemetrexed; first compound 0.2 µM) | relative viability (Erlotinib + Pemetrexed; first compound 0.6325 µM) | relative viability (Erlotinib + Pemetrexed; first compound 2 µM) | relative viability (Erlotinib + OSI-027; first compound 0.02 µM) | relative viability (Erlotinib + OSI-027; first compound 0.2 µM) | relative viability (Erlotinib + OSI-027; first compound 0.6325 µM) | relative viability (Erlotinib + OSI-027; first compound 2 µM) | relative viability (AT9283 + Alpelisib; first compound 0.003 µM) | relative viability (AT9283 + Alpelisib; first compound 0.03 µM) | relative viability (AT9283 + Alpelisib; first compound 0.09487 µM) | relative viability (AT9283 + Alpelisib; first compound 0.3 µM) | relative viability (AT9283 + Foretinib; first compound 0.003 µM) | relative viability (AT9283 + Foretinib; first compound 0.03 µM) | relative viability (AT9283 + Foretinib; first compound 0.09487 µM) | relative viability (AT9283 + Foretinib; first compound 0.3 µM) | relative viability (AT9283 + Dasatinib; first compound 0.003 µM) | relative viability (AT9283 + Dasatinib; first compound 0.03 µM) | relative viability (AT9283 + Dasatinib; first compound 0.09487 µM) | relative viability (AT9283 + Dasatinib; first compound 0.3 µM)
LK-2 | 0.259 | 0.278 | 0.318 | 0.235 | 0.202 | 0.211 | 0.21 | 0.192 | 0.936 | 0.379 | 0.21 | 0.236 | 0.965 | 0.31 | 0.159 | 0.129 | 0.228 | 0.197 | 0.135 | 0.142
NCI-H358 | 0.176 | 0.156 | 0.147 | 0.164 | 0.82 | 0.458 | 0.407 | 0.152 | 0.901 | 0.171 | 0.163 | 0.152 | 0.653 | 0.155 | 0.0898 | 0.0981 | 0.147 | 0.1 | 0.0732 | 0.0691
COR-L23 | 0.205 | 0.178 | 0.195 | 0.19 | 0.87 | 0.879 | 0.721 | 0.512 | 0.811 | 0.23 | 0.117 | 0.109 | 1.01 | 0.623 | 0.216 | 0.182 | 0.503 | 0.207 | 0.0898 | 0.101
NCI-H520 | 0.847 | 0.749 | – | 0.609 | 0.282 | 0.387 | 0.271 | 0.226 | 1.01 | 0.338 | 0.274 | 0.239 | 0.95 | 0.326 | 0.337 | 0.295 | 0.2 | 0.174 | 0.147 | 0.145
NCI-H3122 | 0.215 | 0.186 | 0.179 | 0.168 | 0.946 | 1.06 | 0.998 | 0.641 | 0.786 | 0.764 | 0.28 | 0.227 | 0.803 | 0.852 | 0.284 | 0.0779 | 0.763 | 0.664 | 0.111 | 0.0513
LXF-289 | 0.908 | – | 0.819 | 0.783 | 0.79 | 0.766 | 0.721 | 0.551 | 0.964 | 1.01 | 0.132 | 0.105 | 1 | 0.571 | 0.225 | 0.109 | 0.227 | 0.106 | 0.0281 | 0.029
NCI-H2126 | 0.717 | 0.6 | 0.415 | 0.376 | 0.668 | 0.592 | 0.532 | 0.366 | 0.722 | 0.788 | 0.501 | 0.323 | 1.2 | 1.18 | 0.652 | 0.447 | 0.587 | 0.602 | 0.439 | 0.271
SK-MES-1 | 1.07 | 0.519 | 0.545 | 0.418 | 0.615 | 0.415 | 0.356 | 0.221 | 0.807 | 0.859 | 0.509 | 0.173 | 0.924 | 0.863 | 0.604 | 0.143 | 0.56 | 0.25 | 0.0729 | 0.0952
HOP-62 | 0.285 | 0.332 | 0.255 | 0.312 | 0.917 | 0.848 | 1.04 | 0.754 | 1.11 | 0.991 | 0.207 | 0.219 | 1.12 | 0.667 | 0.324 | 0.321 | 0.666 | 0.58 | 0.295 | 0.186
NCI-H596 | 0.609 | 0.455 | 0.489 | 0.457 | 0.675 | 0.528 | 0.537 | 0.408 | 0.508 | 0.509 | 0.531 | 0.496 | 0.813 | 0.822 | 0.744 | 0.59 | 0.59 | 0.597 | 0.565 | 0.297
NCI-H1944 | 0.586 | 0.506 | 0.536 | 0.358 | 0.413 | 0.355 | 0.291 | 0.269 | 0.792 | 0.621 | 0.255 | 0.275 | 0.821 | 0.373 | 0.267 | 0.254 | 0.199 | 0.178 | 0.116 | 0.111
NCI-H1395 | 0.807 | 0.959 | 0.868 | 0.794 | 0.677 | 0.712 | 0.615 | 0.629 | 1 | 0.804 | 0.409 | 0.431 | 0.729 | 0.88 | 0.465 | 0.397 | 0.434 | 0.424 | 0.292 | 0.287
NCI-H2023 | 0.226 | 0.211 | 0.174 | 0.184 | 0.428 | 0.338 | 0.285 | 0.192 | 0.634 | 0.501 | 0.34 | 0.131 | 0.739 | 0.86 | 0.301 | 0.108 | 0.526 | 0.42 | 0.182 | 0.101
SK-LU-1 | 1.07 | 1.01 | 1.05 | – | 0.305 | 0.369 | 0.302 | 0.253 | 1.2 | 0.426 | 0.304 | 0.254 | 0.925 | 0.385 | 0.214 | 0.27 | 0.217 | 0.124 | 0.0747 | 0.0888
